{
  "source": "patent US7632414B2",
  "about": "“Process for suppressing the growth of green algae in aqueous systems” (priority 2003, dated 2009)",
  "system": "green algae",
  "conditions": "after the pH of the water becomes 6.0 or more acidic on acid addition",
  "source_text": "Experiments have also been carried out to add acid to suppress plankton.",
  "data": [
    {"smiles": "Cl", "note": "[hydrochloric acid]", "values": [
      {"measurement": "growth of green algae in Dian Ci Lake water", "value": "totally inhibited"}
    ]}
  ]
}
